Assay results reported in patent publication US20140113904A1, “TREATMENT OF CANCER WITH TOR KINASE INHIBITORS” (SIGNAL PHARMACEUTICALS, LLC, priority 2012, published 2014).
Where two headings read alike, the source gives them in different places. Each block holds one compound with its values, some of them ahead of it.

Tests used:
PC3 cells = test: Cell cycle distribution by flow cytometry-based PI staining; parameters: species or system human
Procedure: PC3 tumor cells were plated at 250,000 cells per well in a 6-well plate and allowed to equilibrate overnight in 5% CO2 at 37° C. For treatment, the media was aspirated to remove dead/floating cells before addition of 3 mL of media with or without compound. […] The cells were then processed for cell cycle analysis. The media was transferred into a 15 mL tube. The cells were trypsinized and transferred to the same tube. The cells were then spun at 12 000 rpm, re-suspended in 500 μL propidium iodide (PI) staining buffer, and incubated at room temperature in the dark for 30 minutes. The sample was then analyzed on a FACSCaliber instrument. The cell cycle experiments were performed on two independent occasions.
The raw data collected from BD FACS Calibur was analyzed by cell cycle software ModFit LT (Verity Software House, Inc). The histogram was generated using the automatic analysis setting. All numbers generated by ModFit LT were transferred to Microsoft Excel and graphed.
PC3 cells display an aneuploid phenotype which is evident in the comparison with HeLa cells.

[1] = 5-day tolerability study of Compound 1 in PC3 tumor-bearing mice (body weight); assay type: in vivo, SCID mice
Procedure: Plasma and tumor samples were collected 24 hours after the last dose in each dose group.
Mice were monitored daily for clinical signs and body weight changes. At the end of the study, mice were euthanized and plasma and tumor samples were collected for PK/PD determination. PD markers, pS6 and pAkt, were measured using MSD technology.
Initial body weights were recorded prior to the initiation of treatment using a digital scale. The percent body weight change during the course of the study was calculated using initial body weight measurements. Body weights of each animal were measured twice a week at the same time that tumor measurements were taken. Body weights were measured more frequently if significant decreases were noted during the course of the study.
In preparation for xenograft studies, a 5-day tolerability study was performed. […] The animals in the 50 mg/kg dose group lost >17% of the starting body weight by Day 5 (24 hours after the 4th dose). The animals in this group were euthanized. By Day 6 (24 hours after the 5th dose), the animals in the 25 mg/kg and 10 mg/kg groups lost 9% and 4%, respectively, of the starting body weight.

CD-31 = CD-31 immunohistochemistry in PC3 tumors (Compound 1); assay type: in vivo, SCID mice; settings: 25 mg/kg oral QD for 6 days, 2 hours after last dose
Procedure: Two hours after the last dose of either vehicle, Compound 1, or rapamycin, the mice were euthanized and the tumors were dissected. The tumors were snap frozen in liquid nitrogen and processed for immunohistochemistry (IHC) and TUNEL.
Five to ten micron thick cryostat sections of tumor samples were used for IHC. The expression of a cell proliferation marker Ki-67 was evaluated by IHC using anti-Ki-67 antibody. Anti-CD-31 antibody was used to determine blood vessel density and is a measurement of tumor angiogenesis. Frozen sections were fixed in 4% paraformaldehyde for 10 minutes at room temperature, washed in PBS, blocked and permeabilized with normal goat serum and triton x-100. Sections were then incubated with primary antibody (overnight) followed by incubation with secondary antibody (60 minutes). […] The sections were visualized with a Nikon E800 microscope equipped with fluorescence detection equipment and a digital camera attached to a computer.
The tissues sections processed for apoptosis or immunostained for proliferating cells (Ki-67) or blood vessels were quantitated using Metamorph software. Using 20× objective, 5 different fields from each section, 2 to 4 sections from each tumor, and 3 to 4 tumors from each treatment group or control were used for quantitation. The area of interest was expressed as the percent threshold area of the total area.

[2] = Compound 2 concentrations in plasma by LC-MS/MS; assay type: in vivo, SCID mice; settings: for concentration at 0.5 h / concentration at 1 h / concentration at 3 h / concentration at 6 h / concentration at 10 h / concentration at 24 h / AUC(0-t): female, SCID, mouse, plasma; for concentration at 0.5 h / concentration at 1 h / concentration at 3 h / concentration at 6 h / concentration at 10 h / concentration at 24 h: oral; for AUC(0-t): po
PC3 tumors [3] = test: Antitumor activity of Compound 2 in PC3 human prostate cancer xenograft model; assay type: in vivo, SCID mice; settings: for tumor volume reduction vs vehicle: Day 30
PC3 tumors [4] = test: Apoptosis TUNEL assay in PC3 tumors (Compound 2); assay type: in vivo, SCID mice; settings: 5 mg/kg oral QD for 6 days, data not shown

SMILES: CO[C@H]1CC[C@H](N2C(=O)CNc3ncc(-c4ccc(C(C)(C)O)nc4)nc32)CC1 [Compound 1, 7-(6-(2-hydroxypropan-2-yl)pyridin-3-yl)-1-((1r,4r)-4-methoxycyclohexyl)-3,4-dihydropyrazino-[2,3-b]pyrazin-2(1H)-one]
- % G1 (PC3 cells; 0.5 μM, 24 hours): 81.1%
- % G1a (PC3 cells; 0.5 μM, 24 hours): 79%
- % G1 (PC3 cells; 1 μM, 24 hours): 88.6%
- % G1a (PC3 cells; 1 μM, 24 hours): 84.8%
- % G1 (PC3 cells; 5 μM, 24 hours): 89.2%
- % G1a (PC3 cells; 5 μM, 24 hours): 83.9%
- induction of apoptosis (sub-G1 peak) (PC3 cells; 24 hours): did not appear to be induction of apoptosis
- effect on cell cycle distribution (PC3 cells; concentrations relevant to growth inhibition): capable of inducing a G1 arrest
- loss of starting body weight ([1]; 10 mg/kg QD oral, Day 6 (24 hours after the 5th dose)): 4%
- loss of starting body weight ([1]; 25 mg/kg QD oral, Day 6 (24 hours after the 5th dose)): 9%
- loss of starting body weight ([1]; 50 mg/kg QD oral, Day 5 (24 hours after the 4th dose)): > 17%
- CD-31 positive blood vessels vs vehicle (CD-31): significantly (p<0.01) fewer

- Plasma Compound 2 Concentration (μM) Mean ± SEM ([2]; 0.1 mg/kg single oral dose, 24 h): BLQ
- Plasma Concentration (μM) Mean ± SEM ([2]; 2 mg/kg QD, 10 h after last dose): 0.21 ± 0.05 µM
- concentration at 0.5 h ([2]; 0.1 mg/kg, Plasma Compound 2 Concentration (μM) Mean ± SEM, 0.1 mg/kg single oral dose): 0.05 µM
- concentration at 1 h ([2]; 0.1 mg/kg, Plasma Compound 2 Concentration (μM) Mean ± SEM, 0.1 mg/kg single oral dose, 1 h): 0.04 µM
- concentration at 3 h ([2]; 0.1 mg/kg, Plasma Compound 2 Concentration (μM) Mean ± SEM, 0.1 mg/kg single oral dose, 3 h): 0.02 µM
- concentration at 6 h ([2]; 0.1 mg/kg, Plasma Compound 2 Concentration (μM) Mean ± SEM, 0.1 mg/kg single oral dose, 6 h): 0.02 µM
- concentration at 10 h ([2]; 0.1 mg/kg, Plasma Compound 2 Concentration (μM) Mean ± SEM, 0.1 mg/kg single oral dose, 10 h): 0.01 µM
- concentration at 0.5 h ([2]; 0.3 mg/kg, Plasma Compound 2 Concentration (μM) Mean ± SEM, 0.3 mg/kg single oral dose): 0.16 ± 0.03 µM
- concentration at 1 h ([2]; 0.3 mg/kg, Plasma Compound 2 Concentration (μM) Mean ± SEM, 0.3 mg/kg single oral dose, 1 h): 0.16 ± 0.01 µM
- concentration at 3 h ([2]; 0.3 mg/kg, Plasma Compound 2 Concentration (μM) Mean ± SEM, 0.3 mg/kg single oral dose, 3 h): 0.07 ± 0.01 µM
- concentration at 6 h ([2]; 0.3 mg/kg, Plasma Compound 2 Concentration (μM) Mean ± SEM, 0.3 mg/kg single oral dose, 6 h): 0.07 ± 0.01 µM
- concentration at 10 h ([2]; 0.3 mg/kg, Plasma Compound 2 Concentration (μM) Mean ± SEM, 0.3 mg/kg single oral dose, 10 h): 0.04 ± 0.01 µM
- concentration at 24 h ([2]; 0.3 mg/kg, Plasma Compound 2 Concentration (μM) Mean ± SEM, 0.3 mg/kg single oral dose, 24 h): 0 µM
- concentration at 1 h ([2]; 1 mg/kg, 1 mg/kg BID, 1 h after last dose, read-out: Plasma Concentration (μM) Mean ± SEM): 0.73 ± 0.14 µM
- concentration at 3 h ([2]; 1 mg/kg, 1 mg/kg BID, 3 h after last dose, read-out: Plasma Concentration (μM) Mean ± SEM): 0.48 ± 0.04 µM
- concentration at 6 h ([2]; 1 mg/kg, 1 mg/kg BID, 6 h after last dose, read-out: Plasma Concentration (μM) Mean ± SEM): 0.22 ± 0.04 µM
- concentration at 10 h ([2]; 1 mg/kg, 1 mg/kg BID, 10 h after last dose, read-out: Plasma Concentration (μM) Mean ± SEM): 0.11 ± 0.01 µM
- concentration at 24 h ([2]; 1 mg/kg, 1 mg/kg BID, 24 h after last dose, read-out: Plasma Concentration (μM) Mean ± SEM): 0.02 µM
- concentration at 10 h ([2]; 1 mg/kg, 1 mg/kg single dose, read-out: plasma concentration at which pS6RP and pAKT (S473) were inhibited through 10 hours): 0.12 ± 0.003 µM
- concentration at 1 h ([2]; 1 mg/kg, Plasma Compound 2 Concentration (μM) Mean ± SEM, 1 mg/kg single oral dose, 1 h): 0.53 ± 0.02 µM
- concentration at 3 h ([2]; 1 mg/kg, Plasma Compound 2 Concentration (μM) Mean ± SEM, 1 mg/kg single oral dose, 3 h): 0.34 ± 0.01 µM
- concentration at 6 h ([2]; 1 mg/kg, Plasma Compound 2 Concentration (μM) Mean ± SEM, 1 mg/kg single oral dose, 6 h): 0.13 ± 0.01 µM
- concentration at 10 h ([2]; 1 mg/kg, Plasma Compound 2 Concentration (μM) Mean ± SEM, 1 mg/kg single oral dose, 10 h): 0.12 µM
- concentration at 24 h ([2]; 1 mg/kg, Plasma Compound 2 Concentration (μM) Mean ± SEM, 1 mg/kg single oral dose, 24 h): 0.005 µM
- concentration at 1 h ([2]; 2 mg/kg, 2 mg/kg QD, 1 h after last dose, read-out: Plasma Concentration (μM) Mean ± SEM): 1.02 ± 0.2 µM
- concentration at 3 h ([2]; 2 mg/kg, 2 mg/kg QD, 3 h after last dose, read-out: Plasma Concentration (μM) Mean ± SEM): 0.59 ± 0.08 µM
- concentration at 6 h ([2]; 2 mg/kg, 2 mg/kg QD, 6 h after last dose, read-out: Plasma Concentration (μM) Mean ± SEM): 0.27 ± 0.08 µM
- concentration at 10 h ([2]; 2 mg/kg, 2 mg/kg QD, 10 h after last dose, read-out: Plasma Concentration (μM) Mean ± SEM): 0.21 µM
- concentration at 24 h ([2]; 2 mg/kg, 2 mg/kg QD, 24 h after last dose, read-out: Plasma Concentration (μM) Mean ± SEM): 0.02 ± 0.01 µM
- concentration at 24 h ([2]; 5 mg/kg, Compound 2 in the plasma, efficacy study, 5 mg/kg QD, 24 hours after the last dose): 0.13 µM
- concentration at 1 h ([2]; 10 mg/kg, Plasma Compound 2 Concentration (μM) Mean ± SEM, 10 mg/kg single oral dose, 1 h): 6.78 ± 1.16 µM
- concentration at 3 h ([2]; 10 mg/kg, Plasma Compound 2 Concentration (μM) Mean ± SEM, 10 mg/kg single oral dose, 3 h): 5.69 ± 0.96 µM
- concentration at 6 h ([2]; 10 mg/kg, Plasma Compound 2 Concentration (μM) Mean ± SEM, 10 mg/kg single oral dose, 6 h): 2.1 ± 0.22 µM
- concentration at 10 h ([2]; 10 mg/kg, Plasma Compound 2 Concentration (μM) Mean ± SEM, 10 mg/kg single oral dose, 10 h): 1.18 ± 0.2 µM
- concentration at 24 h ([2]; 10 mg/kg, Plasma Compound 2 Concentration (μM) Mean ± SEM, 10 mg/kg single oral dose, 24 h): 0.8 ± 0.09 µM
- AUC(0-t) ([2]; 0.5 mg/kg, 0.5 mg/kg BID, after last dose, read-out: total plasma AUC0-10 h): 1.42 µM·h
- AUC(0-t) ([2]; 1 mg/kg, 1 mg/kg BID, after last dose, read-out: total plasma AUC0-10 h): 3.27 µM·h
- AUC(0-t) ([2]; 1 mg/kg, 1 mg/kg QD (BID/QD study), read-out: total plasma AUC0-24 h): 2.95 µM·h
- AUC(0-t) ([2]; 1 mg/kg, 1 mg/kg QD, last day, read-out: total plasma AUC0-24 h): 2.33 µM·h
- AUC(0-t) ([2]; 2 mg/kg, 2 mg/kg QD, last day, read-out: total plasma AUC0-24 h): 5.93 µM·h
- AUC(0-t) ([2]; 5 mg/kg, 5 mg/kg QD, last day, read-out: total plasma AUC0-24 h): 17 µM·h
SMILES: CCN1C(=O)CNc2ncc(-c3ccc(-c4nc[nH]n4)nc3C)nc21 [Compound 2, 1-ethyl-7-(2-methyl-6-(1H-1,2,4-triazol-3-yl)pyridin-3-yl)-3,4-dihydropyrazino[2,3-b]pyrazin-2(1H)-one]
- tumor volume reduction vs vehicle (PC3 tumors [3]; 0.5 mg/kg BID): 57%
- tumor volume reduction vs vehicle (PC3 tumors [3]; 1 mg/kg BID): 66%
- tumor volume reduction vs vehicle (PC3 tumors [3]; 1 mg/kg QD): 55%
- tumor inhibition (PC3 tumors [3]; 1 mg/kg QD, Day 30 (BID/QD study)): the same as 0.5 mg/kg BID
- tumor volume reduction vs vehicle (PC3 tumors [3]; 2 mg/kg QD): 63%
- tumor volume reduction vs vehicle (PC3 tumors [3]; 5 mg/kg QD): 76%
- lowest efficacious dose (PC3 tumors [3]; BID, approximately 65% tumor volume inhibition): 1 mg/kg
- number of TUNEL-positive cells vs vehicle (PC3 tumors [4]): No significant change
